# Source: ChEMBL document CHEMBL1153372, “A selective matrix metalloprotease 12 inhibitor for potential treatment of chronic obstructive pulmonary disease (COPD): discovery of (S)-2-(8-(methoxycarbonylamino)dibenzo[b,d]furan-3-sulfonamido)-3-methylbutanoic acid (MMP408)” (J Med Chem, 2009)
# Columns and labels:
# [1] = target: Collagenase 3 (Homo sapiens, UniProt P45452); test: Inhibition of human recombinant MMP13 expressed in Escherichia coli
# [2] = Cmax in C57BL/6 mouse at 30 mg/kg, po; assay type: ADME, organism-based; parameters: dose 30 mg/kg, route oral; details: in vivo
# [3] = Half life in C57BL/6 mouse at 30 mg/kg, po; assay type: ADME, organism-based; parameters: dose 30 mg/kg, route oral; details: in vivo
# [4] = AUC in C57BL/6 mouse at 30 mg/kg, po; assay type: ADME, organism-based; parameters: dose 30 mg/kg, route oral; details: plasma
# [5] = Volume of distribution at steady state in C57BL/6 mouse at 2 mg/kg, iv; assay type: ADME, organism-based; parameters: dose 2 mg/kg, route intravenous; details: in vivo, read-out: Vdss
# [6] = Clearance in C57BL/6 mouse at 2 mg/kg, iv; assay type: ADME, organism-based; parameters: dose 2 mg/kg, route intravenous; details: in vivo
# [7] = Oral bioavailability in C57BL/6 mouse at 30 mg/kg; assay type: ADME, organism-based; details: in vivo
# [8] = tested on: Mus musculus; test: Inhibition of human recombinant MMP-12-induced lung inflammation in C57BL/6 mouse chronic obstructive pulmonary disease model assessed as inhibition of bronchoalveolar lavage fluid inflammation at 30 mg/kg, po qd; assay type: functional; details: C57BL/6, Lung
# [9] = target: Macrophage metalloelastase (Mus musculus, UniProt P34960); test: Inhibition of mouse recombinant MMP12
# [10] = Metabolic stability in mouse liver microsomes; assay type: ADME, Microsome
# [11] = Metabolic stability in human liver microsomes; assay type: ADME, Microsome
# [12] = Inhibition of sheep MMP12; parameters: species or system Ovis aries
# [13] = target: Stromelysin-1 (Homo sapiens, UniProt P08254); test: Inhibition of human MMP3
# [14] = Metabolic stability in rat liver microsomes; assay type: ADME, Microsome
# [15] = target: T1, Interstitial collagenase (Homo sapiens, UniProt P03956); test: Inhibition of human MMP1
# T1 sequence (P03956 whole entry): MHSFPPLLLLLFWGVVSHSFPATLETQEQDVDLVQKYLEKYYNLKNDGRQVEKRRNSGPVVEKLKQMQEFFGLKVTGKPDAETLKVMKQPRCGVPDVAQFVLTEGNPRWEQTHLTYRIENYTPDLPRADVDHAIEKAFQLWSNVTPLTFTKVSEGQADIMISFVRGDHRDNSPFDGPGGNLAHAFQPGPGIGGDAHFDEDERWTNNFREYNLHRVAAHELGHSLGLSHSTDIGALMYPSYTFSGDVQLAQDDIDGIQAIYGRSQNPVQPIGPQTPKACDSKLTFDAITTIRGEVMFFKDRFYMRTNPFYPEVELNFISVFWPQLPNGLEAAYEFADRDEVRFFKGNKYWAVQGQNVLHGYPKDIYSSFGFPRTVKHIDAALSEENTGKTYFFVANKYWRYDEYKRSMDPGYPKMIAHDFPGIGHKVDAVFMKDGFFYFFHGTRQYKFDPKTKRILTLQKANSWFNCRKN
# [16] = Metabolic stability in dog liver microsomes; assay type: ADME, Canis lupus familiaris, Microsome
# [17] = target: T2, A disintegrin and metalloproteinase with thrombospondin motifs 4 (Homo sapiens, UniProt O75173); test: Inhibition of human Aggrecanase-1
# T2 sequence (O75173 whole entry): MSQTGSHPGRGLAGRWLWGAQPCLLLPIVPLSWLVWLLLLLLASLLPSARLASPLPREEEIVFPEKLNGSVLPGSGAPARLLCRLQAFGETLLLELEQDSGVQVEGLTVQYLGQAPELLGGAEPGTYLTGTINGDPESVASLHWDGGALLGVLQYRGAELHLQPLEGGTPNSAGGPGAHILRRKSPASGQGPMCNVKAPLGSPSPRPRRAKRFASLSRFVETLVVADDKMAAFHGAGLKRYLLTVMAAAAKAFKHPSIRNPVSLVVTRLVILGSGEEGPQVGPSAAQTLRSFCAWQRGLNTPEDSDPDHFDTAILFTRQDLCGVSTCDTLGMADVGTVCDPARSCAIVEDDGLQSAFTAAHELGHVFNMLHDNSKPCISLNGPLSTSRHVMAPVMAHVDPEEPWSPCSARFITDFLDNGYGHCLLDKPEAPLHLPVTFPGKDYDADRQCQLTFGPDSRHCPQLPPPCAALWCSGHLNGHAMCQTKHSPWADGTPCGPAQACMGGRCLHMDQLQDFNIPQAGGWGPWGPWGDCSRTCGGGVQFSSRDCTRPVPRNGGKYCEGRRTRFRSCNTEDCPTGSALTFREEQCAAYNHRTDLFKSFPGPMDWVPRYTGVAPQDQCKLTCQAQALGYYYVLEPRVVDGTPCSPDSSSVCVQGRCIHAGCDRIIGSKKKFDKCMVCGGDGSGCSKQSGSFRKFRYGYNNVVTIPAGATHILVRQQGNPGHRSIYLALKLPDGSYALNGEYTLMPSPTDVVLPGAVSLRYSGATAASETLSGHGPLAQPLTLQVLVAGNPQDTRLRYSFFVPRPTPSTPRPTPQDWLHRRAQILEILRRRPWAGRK
# [18] = target: Matrix metalloproteinase-14 (Homo sapiens, UniProt P50281); test: Inhibition of human MMP14
# [19] = target: T3, Matrilysin (Homo sapiens, UniProt P09237); test: Inhibition of human MMP7
# T3 sequence (P09237 whole entry): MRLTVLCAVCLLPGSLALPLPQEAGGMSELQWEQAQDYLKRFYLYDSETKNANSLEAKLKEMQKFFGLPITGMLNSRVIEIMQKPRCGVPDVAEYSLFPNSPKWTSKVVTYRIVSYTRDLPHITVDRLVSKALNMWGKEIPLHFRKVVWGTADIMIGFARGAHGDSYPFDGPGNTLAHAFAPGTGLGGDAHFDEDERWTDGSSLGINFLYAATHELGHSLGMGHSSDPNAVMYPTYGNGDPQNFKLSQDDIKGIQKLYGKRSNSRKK
# [20] = target: Matrix metalloproteinase-9 (Homo sapiens, UniProt P14780); test: Inhibition of human MMP9
# [21] = tested on: Mus musculus; test: Inhibition of human recombinant MMP-12-induced lung inflammation in po dosed C57BL/6 mouse chronic obstructive pulmonary disease model assessed as inhibition of lung inflammation dosed twice daily; assay type: functional; details: C57BL/6, po, read-out: MED
# [22] = target: Voltage-gated inwardly rectifying potassium channel KCNH2 (Homo sapiens, UniProt Q12809); test: Inhibition of human ERG channel
# [23] = tested on: Mus musculus; test: Inhibition of human recombinant MMP-12-induced lung inflammation in C57BL/6 mouse chronic obstructive pulmonary disease model assessed as inhibition of bronchoalveolar lavage fluid macrophage level at 30 mg/kg, po qd; assay type: functional; details: C57BL/6, Lung
# [24] = target: T4, A disintegrin and metalloproteinase with thrombospondin motifs 5 (Homo sapiens, UniProt Q9UNA0); test: Inhibition of human Aggrecanase-2
# T4 sequence (Q9UNA0 whole entry): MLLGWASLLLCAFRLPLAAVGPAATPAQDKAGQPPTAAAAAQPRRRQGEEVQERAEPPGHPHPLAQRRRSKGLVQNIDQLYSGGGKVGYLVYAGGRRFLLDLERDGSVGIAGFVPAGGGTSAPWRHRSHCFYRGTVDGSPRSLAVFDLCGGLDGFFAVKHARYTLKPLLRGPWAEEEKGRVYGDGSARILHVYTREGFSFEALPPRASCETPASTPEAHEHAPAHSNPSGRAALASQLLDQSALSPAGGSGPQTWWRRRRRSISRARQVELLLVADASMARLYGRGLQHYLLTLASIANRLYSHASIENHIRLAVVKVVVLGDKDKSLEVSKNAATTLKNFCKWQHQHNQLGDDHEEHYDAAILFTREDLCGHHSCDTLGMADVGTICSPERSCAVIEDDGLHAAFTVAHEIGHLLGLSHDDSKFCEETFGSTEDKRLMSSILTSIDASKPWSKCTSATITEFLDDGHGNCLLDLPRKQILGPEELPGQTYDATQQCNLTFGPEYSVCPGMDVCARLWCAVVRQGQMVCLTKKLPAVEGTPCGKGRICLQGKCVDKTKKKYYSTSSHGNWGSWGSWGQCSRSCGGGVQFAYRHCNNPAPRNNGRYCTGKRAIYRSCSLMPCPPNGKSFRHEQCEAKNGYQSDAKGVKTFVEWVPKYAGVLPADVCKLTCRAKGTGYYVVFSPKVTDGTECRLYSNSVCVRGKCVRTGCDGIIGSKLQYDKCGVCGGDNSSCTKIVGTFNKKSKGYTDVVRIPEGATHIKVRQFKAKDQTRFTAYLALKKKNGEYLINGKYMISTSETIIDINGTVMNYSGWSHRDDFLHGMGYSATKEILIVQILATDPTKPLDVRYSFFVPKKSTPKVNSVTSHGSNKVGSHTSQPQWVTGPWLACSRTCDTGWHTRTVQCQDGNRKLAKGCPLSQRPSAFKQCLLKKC
# [25] = target: Macrophage metalloelastase (Rattus norvegicus, UniProt Q63341)
# [26] = Metabolic stability in monkey liver microsomes; assay type: ADME, Macaca mulatta, Microsome; details: rhesus monkey
# Chain of Macrophage metalloelastase (Rattus norvegicus, UniProt Q63341) (Q63341 whole entry): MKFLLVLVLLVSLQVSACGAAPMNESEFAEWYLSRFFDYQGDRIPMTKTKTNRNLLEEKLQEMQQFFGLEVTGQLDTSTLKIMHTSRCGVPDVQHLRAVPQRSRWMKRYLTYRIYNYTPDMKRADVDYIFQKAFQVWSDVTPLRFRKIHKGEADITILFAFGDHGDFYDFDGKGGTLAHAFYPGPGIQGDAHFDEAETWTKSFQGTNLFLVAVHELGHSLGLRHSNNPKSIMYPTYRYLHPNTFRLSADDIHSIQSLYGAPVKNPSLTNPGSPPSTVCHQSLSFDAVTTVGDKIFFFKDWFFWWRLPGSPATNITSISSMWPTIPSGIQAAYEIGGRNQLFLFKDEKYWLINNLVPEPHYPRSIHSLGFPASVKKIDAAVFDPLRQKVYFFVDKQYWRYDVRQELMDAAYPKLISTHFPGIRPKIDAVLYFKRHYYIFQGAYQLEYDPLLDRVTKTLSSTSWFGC
# Chain of Matrix metalloproteinase-9 (P14780 whole entry): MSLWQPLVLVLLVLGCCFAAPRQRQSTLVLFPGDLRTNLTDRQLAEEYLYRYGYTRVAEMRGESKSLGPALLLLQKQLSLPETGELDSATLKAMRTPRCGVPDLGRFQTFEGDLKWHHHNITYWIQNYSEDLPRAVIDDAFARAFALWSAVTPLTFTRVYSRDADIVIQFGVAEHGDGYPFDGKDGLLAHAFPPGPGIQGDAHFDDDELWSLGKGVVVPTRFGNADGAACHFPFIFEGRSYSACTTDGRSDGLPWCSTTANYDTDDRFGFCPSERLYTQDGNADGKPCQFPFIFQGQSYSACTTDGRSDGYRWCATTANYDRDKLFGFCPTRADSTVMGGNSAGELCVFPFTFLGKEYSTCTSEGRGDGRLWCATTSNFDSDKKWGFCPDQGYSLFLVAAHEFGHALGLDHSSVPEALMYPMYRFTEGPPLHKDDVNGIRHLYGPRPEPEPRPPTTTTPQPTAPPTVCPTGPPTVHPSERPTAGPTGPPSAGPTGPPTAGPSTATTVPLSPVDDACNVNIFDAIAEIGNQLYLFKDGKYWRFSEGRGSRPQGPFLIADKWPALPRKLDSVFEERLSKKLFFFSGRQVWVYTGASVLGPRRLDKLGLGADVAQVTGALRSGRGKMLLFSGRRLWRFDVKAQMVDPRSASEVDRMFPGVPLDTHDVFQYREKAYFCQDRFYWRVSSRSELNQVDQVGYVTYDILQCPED
# Chain of Stromelysin-1 (P08254 whole entry): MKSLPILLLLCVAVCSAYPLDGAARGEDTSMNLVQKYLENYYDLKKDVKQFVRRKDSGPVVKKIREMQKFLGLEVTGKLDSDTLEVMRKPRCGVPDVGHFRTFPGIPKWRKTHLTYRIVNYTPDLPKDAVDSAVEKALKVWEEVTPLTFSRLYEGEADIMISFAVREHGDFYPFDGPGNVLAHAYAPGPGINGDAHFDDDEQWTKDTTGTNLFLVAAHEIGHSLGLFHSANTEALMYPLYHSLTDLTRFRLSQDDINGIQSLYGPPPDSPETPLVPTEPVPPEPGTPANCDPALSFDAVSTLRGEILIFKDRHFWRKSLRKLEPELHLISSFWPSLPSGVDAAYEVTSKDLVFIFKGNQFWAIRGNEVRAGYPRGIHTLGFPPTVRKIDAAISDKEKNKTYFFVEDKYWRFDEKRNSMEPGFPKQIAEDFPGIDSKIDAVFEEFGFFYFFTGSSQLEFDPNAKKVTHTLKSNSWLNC
# Chain of Voltage-gated inwardly rectifying potassium channel KCNH2 (Q12809 whole entry): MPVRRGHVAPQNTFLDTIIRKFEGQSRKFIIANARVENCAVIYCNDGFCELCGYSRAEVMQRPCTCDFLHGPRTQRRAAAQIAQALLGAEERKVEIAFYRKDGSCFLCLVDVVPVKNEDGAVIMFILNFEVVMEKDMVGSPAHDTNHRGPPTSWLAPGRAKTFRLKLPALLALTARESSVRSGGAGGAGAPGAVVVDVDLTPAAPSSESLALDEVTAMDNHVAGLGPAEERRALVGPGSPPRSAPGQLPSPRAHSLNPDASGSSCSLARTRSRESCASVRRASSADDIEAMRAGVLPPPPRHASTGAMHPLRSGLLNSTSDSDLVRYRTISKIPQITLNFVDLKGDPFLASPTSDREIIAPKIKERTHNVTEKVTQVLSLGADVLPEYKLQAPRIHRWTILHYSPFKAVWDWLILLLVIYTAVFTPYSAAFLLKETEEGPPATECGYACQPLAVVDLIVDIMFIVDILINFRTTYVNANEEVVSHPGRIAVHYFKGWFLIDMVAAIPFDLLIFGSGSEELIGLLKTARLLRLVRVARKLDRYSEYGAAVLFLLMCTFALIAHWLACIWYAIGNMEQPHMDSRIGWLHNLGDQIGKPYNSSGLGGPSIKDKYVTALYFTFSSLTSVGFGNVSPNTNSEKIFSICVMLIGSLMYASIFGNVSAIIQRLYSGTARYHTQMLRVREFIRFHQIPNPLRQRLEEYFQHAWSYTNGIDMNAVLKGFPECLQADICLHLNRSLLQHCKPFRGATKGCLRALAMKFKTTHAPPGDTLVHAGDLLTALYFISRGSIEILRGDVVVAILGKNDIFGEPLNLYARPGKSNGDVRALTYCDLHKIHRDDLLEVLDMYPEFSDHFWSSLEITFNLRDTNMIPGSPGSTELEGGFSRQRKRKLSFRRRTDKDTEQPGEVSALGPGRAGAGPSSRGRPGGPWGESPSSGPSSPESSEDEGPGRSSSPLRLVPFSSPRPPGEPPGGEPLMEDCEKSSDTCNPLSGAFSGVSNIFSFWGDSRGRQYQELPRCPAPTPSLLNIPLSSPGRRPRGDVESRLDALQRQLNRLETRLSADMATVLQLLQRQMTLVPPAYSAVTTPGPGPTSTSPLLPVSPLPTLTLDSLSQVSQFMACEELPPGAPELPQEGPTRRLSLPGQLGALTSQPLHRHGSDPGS
# Chain of Macrophage metalloelastase (Mus musculus, UniProt P34960) (P34960 whole entry): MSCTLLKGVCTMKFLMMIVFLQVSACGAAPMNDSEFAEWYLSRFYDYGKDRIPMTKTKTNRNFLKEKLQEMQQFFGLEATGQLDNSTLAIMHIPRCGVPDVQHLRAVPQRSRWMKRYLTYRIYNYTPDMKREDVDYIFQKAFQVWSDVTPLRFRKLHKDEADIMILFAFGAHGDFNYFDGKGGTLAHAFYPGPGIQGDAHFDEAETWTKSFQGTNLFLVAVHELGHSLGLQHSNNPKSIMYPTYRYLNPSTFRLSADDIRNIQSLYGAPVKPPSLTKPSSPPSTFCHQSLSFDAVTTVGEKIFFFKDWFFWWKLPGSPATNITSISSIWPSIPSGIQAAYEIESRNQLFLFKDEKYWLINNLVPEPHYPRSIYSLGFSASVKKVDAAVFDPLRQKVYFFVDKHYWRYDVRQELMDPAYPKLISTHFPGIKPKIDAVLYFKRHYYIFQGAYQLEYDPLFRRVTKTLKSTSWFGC
compound,measurement,setting,value
Cc1ccc(OC(=O)Nc2ccc3oc4cc(S(=O)(=O)N[C@H](C(=O)O)C(C)C)ccc4c3c2)cc1,IC50,[1],100 nM
CCOC(=O)Nc1ccc2oc3cc(S(=O)(=O)N[C@H](C(=O)O)C(C)C)ccc3c2c1,Cmax,[2],7790 ng/mL
same,half-life,[3],3.4 h
same,AUC,[4],10800 ng·h/mL
same,Vd,[5],1.6 L/kg
same,IC50,[1],100 nM
same,clearance,[6],19 mL/min/kg
same,bioavailability,[7],42%
CCCOC(=O)Nc1ccc2oc3cc(S(=O)(=O)N[C@H](C(=O)O)C(C)C)ccc3c2c1,IC50,[1],10 nM
COC(=O)Nc1ccc2oc3cc(S(=O)(=O)N[C@H](C(=O)O)C(C)C)ccc3c2c1,inhibition in vivo at 30 mg/kg,[8],> 50%
same,IC50,[9],160 nM
same,half-life,[10],> 1 h
same,Cmax,[2],3080 ng/mL
same,half-life,[11],> 1 h
same,half-life,[3],3 h
same,IC50,[12],22.3 nM
same,IC50,[13],351 nM
same,half-life,[14],> 1 h
same,IC50,[15],> 6000 nM
same,AUC,[4],7480 ng·h/mL
same,half-life,[16],> 1 h
same,Vd,[5],1.9 L/kg
same,IC50,[17],> 5000 nM
same,IC50,[18],1100 nM
same,IC50,[19],> 22000 nM
same,IC50,[20],1300 nM
same,IC50,[1],120 nM
same,clearance,[6],17.2 mL/min/kg
same,minimal effective dose,[21],5 mg/kg
same,Activity,[22],Not Active
same,bioavailability,[7],27%
same,inhibition in vivo at 30 mg/kg,[23],> 70%
same,IC50,[24],> 10000 nM
same,IC50,[25],320 nM
same,half-life,[26],> 1 h
CC(C)[C@@H](NS(=O)(=O)c1ccc2oc3ccccc3c2c1)C(=O)O,IC50,[1],2500 nM
CC(C)COC(=O)Nc1ccc2oc3cc(S(=O)(=O)N[C@H](C(=O)O)C(C)C)ccc3c2c1,IC50,[1],10 nM
CC(C)[C@H](NS(=O)(=O)c1ccc2c(c1)oc1ccc(NC(=O)NC3CCCC3)cc12)C(=O)O,IC50,[1],2.1 nM
CC(C)[C@H](NS(=O)(=O)c1ccc2c(c1)oc1ccc(NC(=O)OCCF)cc12)C(=O)O,IC50,[1],10 nM
COC(=O)Nc1cc2oc3ccc(S(=O)(=O)N[C@@H](C(=O)O)C(C)C)cc3c2cc1Br,IC50,[1],25400 nM
CC(C)[C@H](NS(=O)(=O)c1ccc2c(c1)oc1cc(NC(=O)Oc3ccc(F)cc3)ccc12)C(=O)O,IC50,[1],361 nM
CC(C)[C@H](NS(=O)(=O)c1ccc2c(c1)oc1ccc(NS(=O)(=O)CC(F)(F)F)cc12)C(=O)O,IC50,[1],670 nM
CC(C)[C@@H](NS(=O)(=O)c1ccc2oc3cc(NS(=O)(=O)C(C)C)ccc3c2c1)C(=O)O,IC50,[1],120 nM
CC(C)OC(=O)Nc1ccc2c(c1)oc1ccc(S(=O)(=O)N[C@@H](C(=O)O)C(C)C)cc12,IC50,[1],500 nM
CC(C)[C@H](NS(=O)(=O)c1ccc2c(c1)oc1ccc(NC(=O)NCCc3cccs3)cc12)C(=O)O,Vd,[5],15.6 L/kg
same,IC50,[1],1.1 nM
same,clearance,[6],211 mL/min/kg
CC(C)[C@H](NS(=O)(=O)c1ccc2c(c1)oc1ccc(NC(=O)Oc3ccc(F)cc3)cc12)C(=O)O,IC50,[1],200 nM
